Results taken from patent US6218384A, “3-Oxo-pyrido(1,2-a)benzimidazole-4-carboxyl and 4-oxo-azepino(1,2-a)benzimidazole-5-carboxyl derivatives useful in treating central nervous system disorders” (Ortho-McNeil Pharmaceutical, Inc., priority 1997, dated 2001).
Like-named read-outs stand apart in the source and are kept apart here.

What was measured:
[1] = Suppression of anxiety (punished licking, conflict test) in the adult male rat; format: in vivo, male rats
Procedure: The anxiolytic activity of selected compounds of the invention was assessed by determining their ability to release (disinhibit) behavior that had been suppressed by punishment (Vogel, J. R. et al. Psychopharmacology 1971, 21, 1). Male rats were deprived of water for 48 hours and were deprived of food for 24 hours prior to testing. After the first 24 hours of water deprivation, they were placed in the conflict chamber for a training period; wherein, they were allowed 200 unpunished licks from a bottle containing tap water. The experiment was run the next day. At the expected time of peak activity, the animals were placed in the chamber and allowed access to tap water. […] Their first lick initiates a 3-min test session. Subsequently,every 20th lick was punished by a 0.2-s shock delivered via the stainless-steel drinking-tube. Vehicle-treated control animals generally were willing to accept a median number of 3 to 8 shocks per test session. […] The Wilcoxon rank-sum test (Mann-WhitneyU-test) was used to test for an increase (p<0.05, 1-tailed) in the median number of shocks in drug-treated groups, compared to a concurrently run vehicle-treated group. The biological assay is considered to be valid if the effects of a known anxiolytic (positive control) are detected, within the same experiment. A compound was considered active if there is a significant difference in the median number of shocks tolerated between the drug-treated group and the control group. The MED was defined as the minimum dose of the drug-treatment as analyzed using the Wilcoxon rank-sum test (SAS; Statistical Analysis System, version 5.16). If the MED value is greater than 10, an active dose of the compound being tested had not been determined.

[2] = Suppression of metrazol-induced convulsions; format: in vivo, male CD1 mice; details: Mus musculus, 0.5 h, mice
Procedure: Selected compounds of the invention were tested for their ability to reduce metrazol-induced convulsions in mice (Swinyard, E. A. J. Am. Pharm Assoc. 1949, 38, 201). Male CD1 mice, were fasted at least 16 hours, were divided into equal groups and test compounds or vehicle were administered parenterally. Water was not withheld except during the period of observations. At the time of suspected peak activity, anti-pentylenetetrazol (anti-metrazol) activity was evaluated by the subcutaneous administration of the CD90 dose of metrazol (the dose of metrazol was determined from the dose-response curve producing clonic convulsions in 90% of animals that received the corresponding vehicle for this experiment). Metrazol was dissolved in 0.9% sodium chloride solution, and its dose volume was 10 ml/kg. Animals were housed individually for observation of clonic convulsions, tonic convulsions and death for a period of 30 min. Test compounds that blocked the clonic seizure component of the convulsion in at least 50% of the animals were considered active. The biological assay was considered to be valid if the effects of a known anticonvulsant (positive control) were detected, within the same experiment. Activity was reported as percent reduction of clonic convulsions from the vehicle group. The ED50 values of active compounds were calculated by the method of probits (Finney, D. J. 1971. Probit Analysis. London: Cambridge University Press) and are listed in Tables 1 to 5.

[3] = target: benzodiazepine site of the GABA-A receptor; experiment: Benzodiazepine Receptor Binding Assay (inhibition of 3H-flunitrazepam binding); details: ca. 3 nM 3H-flunitrazepam
[4] = Table 1, ip, minimum effective dose, >10 = active dose not determined, read-out: Conflict (ip) MED
[5] = Table 1, ip, clonic convulsions after sc CD90 metrazol, >30 = active dose not determined, read-out: Metrazol (ip) ED50
[6] = Table 1, 25° C., 10-20 min, >10,000 = not active
[7] = Table 2, ip, minimum effective dose, read-out: Conflict (ip) MED
[8] = Table 2, ip, clonic convulsions, read-out: Antimetrazol (ip) ED50
[9] = Table 3, minimum effective dose, read-out: Conflict MED
[10] = Table 3, parenteral, clonic convulsions, read-out: Antimetrazol ED50

SMILES	minimal effective dose [1, 4] [mg/kg]	ED50 [2, 5] [mg/kg]	IC50 [3, 6] [nM]	also measured
O=C1CCN2C(=C1C(=O)Nc1ccncc1)Nc1cc(Cl)ccc12 [compound 82]	> 10	3	380	–
O=C1CCN2C(=C1C(=O)NC1CCC1)Nc1ccccc12 [compound 83]	10	> 30	30	–
O=C1CCN2C(=C1C(=O)Nc1ccccc1)Nc1ccc(Cl)cc12 [compound 84]	> 10	> 10	170	–
Cc1cc(N(C)C)ccc1NC(=O)C1=C2Nc3ccccc3N2CCC1=O [compound 85]	> 10	10	4000	–
CN(C)c1ccccc1NC(=O)C1=C2Nc3ccccc3N2CCC1=O [compound 87]	10	10	10000	–
Cc1cccc2c1NC1=C(C(=O)Nc3ccncc3)C(=O)CCN12 [compound 88]	> 10	10	390	–
Cc1cccc2c1NC1=C(C(=O)Nc3ccccc3)C(=O)CCN12 [compound 89]	> 10	1	10	–
O=C1CCN2C(=C1C(=O)Nc1c(F)c(F)c(F)c(F)c1F)Nc1ccccc12 [compound 91]	10	1 to 10	270	–
O=C1CCN2C(=C1C(=O)Nc1ccc(F)cc1F)Nc1ccccc12 [compound 92]	> 10	1	10	–
O=C1CCN2C(=C1C(=O)Nc1c(F)cc(F)cc1F)Nc1ccccc12 [compound 93]	3	1	15	–
Cc1cccc2c1NC1=C(C(=O)Nc3ccccc3F)C(=O)CCN12 [compound 94]	< 10	1	96	–
O=C1CCN2C(=C1C(=O)Nc1ccc(F)c(F)c1F)Nc1ccccc12 [compound 96]	> 10	> 10	1500	–
O=C1CCN2C(=C1C(=O)Nc1cc(F)ccc1F)Nc1ccccc12 [compound 98]	> 30	> 30	12	–
O=C1CCN2C(=C1C(=O)Nc1ncc[nH]1)Nc1ccccc12 [compound 99]	> 10	> 30	185	–
Cc1cc(NC(=O)C2=C3Nc4ccccc4N3CCC2=O)ccn1 [compound 100]	> 10	> 10	820	–
CNC(=O)C1=C2Nc3ccccc3N2CCC1=O [compound 102]	> 10	> 10	400	–
O=C1CCN2C(=C1C(=O)Nc1c(F)cc(F)cc1Br)Nc1ccccc12 [compound 103]	> 10	> 10	1200	–
O=C1CCN2C(=C1C(=O)Nc1c(F)cc(F)cc1F)Nc1cc(Cl)ccc12 [compound 104]	10	1	13	–
CC(C)NC(=O)C1=C2Nc3ccccc3N2CCC1=O [compound 105]	> 10	> 10	46	–

SMILES	minimal effective dose [1, 4] [mg/kg]	ED50 [2, 5] [mg/kg]	IC50 [3, 6] [nM]	also measured
O=C1CCN2C(=C1C(=O)Nc1ccncc1)Nc1cc(F)ccc12 [compound 106]	3	3	42	–
O=C1CCN2C(=C1C(=O)Nc1c(F)cc(F)cc1F)Nc1cc(F)ccc12 [compound 107]	0.3	1	3	–
O=C1CCN2C(=C1C(=O)Nc1ccccc1F)Nc1cc(F)ccc12 [compound 108]	10	< 1	2	–
O=C1CCN2C(=C1C(=O)Nc1c(F)cccc1F)Nc1cc(F)ccc12 [compound 109]	3	0.3	1.3	–
O=C1CCN2C(=C1C(=O)Nc1ccccc1F)Nc1cc(Cl)ccc12 [compound 113]	< 10	1	5	–
O=C1CCN2C(=C1C(=O)Nc1c(F)cccc1F)Nc1cc(Cl)ccc12 [compound 114]	3	1	6	–
CN(C)CCc1ccc(NC(=O)C2=C3Nc4ccccc4N3CCC2=O)cc1 [compound 115]	30	> 30	110	–
O=C1CCN2C(=C1C(=S)Nc1ccccc1)Nc1ccccc12 [compound 117]	–	–	–	minimal effective dose [1, 7]: > 10 mg/kg; ED50 [2, 8]: > 10 mg/kg; IC50 ([3]; Table 2): 360 nM
O=C1CCN2C(=C1C(=O)Sc1ccccc1)Nc1ccccc12 [compound 119]	–	–	–	minimal effective dose [1, 7]: > 10 mg/kg; ED50 [2, 8]: > 30 mg/kg; IC50 ([3]; Table 2): 29 nM
CN1C2=C(C(=O)Nc3ccccc3)C(=O)CCN2c2ccccc21 [compound 120]	–	–	–	minimal effective dose [1, 9]: < 1 mg/kg; ED50 [2, 10]: < 1 mg/kg; IC50 ([3]; Table 3): 6 nM
CCN1C2=C(C(=O)Nc3ccccc3)C(=O)CCN2c2ccccc21 [compound 121]	–	–	–	minimal effective dose [1, 9]: < 1 mg/kg; ED50 [2, 10]: < 1 mg/kg; IC50 ([3]; Table 3): < 0.1 nM
CN1C2=C(C(=O)Nc3ccccc3F)C(=O)CCN2c2ccccc21 [compound 122]	–	–	–	minimal effective dose [1, 9]: 0.03 mg/kg; ED50 [2, 10]: 0.03 mg/kg; IC50 ([3]; Table 3): < 1 nM
CCN1C2=C(C(=O)Nc3ccccc3F)C(=O)CCN2c2ccccc21 [compound 123]	–	–	–	minimal effective dose [1, 9]: 0.3 mg/kg; ED50 [2, 10]: 0.01 mg/kg; IC50 ([3]; Table 3): 2.1 nM
CN(C)c1ccc(NC(=O)C2=C3N(C)c4ccccc4N3CCC2=O)cc1 [compound 124]	–	–	–	minimal effective dose [1, 9]: 10 mg/kg; ED50 [2, 10]: 1 to 3 mg/kg; IC50 ([3]; Table 3): 29 nM
CCN1C2=C(C(=O)Nc3ccc(N(C)C)cc3)C(=O)CCN2c2ccccc21 [compound 125]	–	–	–	minimal effective dose [1, 9]: > 10 mg/kg; ED50 [2, 10]: 0.3 mg/kg; IC50 ([3]; Table 3): 72 nM
CN1C2=C(C(=O)Nc3ccncc3)C(=O)CCN2c2ccccc21 [compound 126]	–	–	–	minimal effective dose [1, 9]: < 10 mg/kg; ED50 [2, 10]: 3 mg/kg; IC50 ([3]; Table 3): 230 nM
O=C1CCN2C(=C1C(=O)Nc1ccccc1)N(Cc1ccccc1)c1ccccc12 [compound 127]	–	–	–	minimal effective dose [1, 9]: 10 mg/kg; ED50 [2, 10]: 3 mg/kg; IC50 ([3]; Table 3): 12 nM
O=C1CCN2C(=C1C(=O)Nc1ccccc1F)N(Cc1ccccc1)c1ccccc12 [compound 128]	–	–	–	minimal effective dose [1, 9]: > 10 mg/kg; ED50 [2, 10]: 1 mg/kg; IC50 ([3]; Table 3): 88 nM
